Assay results published in US12479847B2 (DANA-FARBER CANCER INSTITUTE, INC., priority 2019, dated 2025).

Legend:
Experiment in all cases: KINOMEscan (ScanMAX) kinase profiling
Format in all cases: binding
panel of 468 kinases [1] = molecular target: T1, panel of 468 kinases (Homo sapiens, UniProt O14936); conditions: CASK; 1 μM; read-out: % control
T1 construct: purchased KINOMEscan (ScanMAX) service
T1 sequence (O14936 1-926): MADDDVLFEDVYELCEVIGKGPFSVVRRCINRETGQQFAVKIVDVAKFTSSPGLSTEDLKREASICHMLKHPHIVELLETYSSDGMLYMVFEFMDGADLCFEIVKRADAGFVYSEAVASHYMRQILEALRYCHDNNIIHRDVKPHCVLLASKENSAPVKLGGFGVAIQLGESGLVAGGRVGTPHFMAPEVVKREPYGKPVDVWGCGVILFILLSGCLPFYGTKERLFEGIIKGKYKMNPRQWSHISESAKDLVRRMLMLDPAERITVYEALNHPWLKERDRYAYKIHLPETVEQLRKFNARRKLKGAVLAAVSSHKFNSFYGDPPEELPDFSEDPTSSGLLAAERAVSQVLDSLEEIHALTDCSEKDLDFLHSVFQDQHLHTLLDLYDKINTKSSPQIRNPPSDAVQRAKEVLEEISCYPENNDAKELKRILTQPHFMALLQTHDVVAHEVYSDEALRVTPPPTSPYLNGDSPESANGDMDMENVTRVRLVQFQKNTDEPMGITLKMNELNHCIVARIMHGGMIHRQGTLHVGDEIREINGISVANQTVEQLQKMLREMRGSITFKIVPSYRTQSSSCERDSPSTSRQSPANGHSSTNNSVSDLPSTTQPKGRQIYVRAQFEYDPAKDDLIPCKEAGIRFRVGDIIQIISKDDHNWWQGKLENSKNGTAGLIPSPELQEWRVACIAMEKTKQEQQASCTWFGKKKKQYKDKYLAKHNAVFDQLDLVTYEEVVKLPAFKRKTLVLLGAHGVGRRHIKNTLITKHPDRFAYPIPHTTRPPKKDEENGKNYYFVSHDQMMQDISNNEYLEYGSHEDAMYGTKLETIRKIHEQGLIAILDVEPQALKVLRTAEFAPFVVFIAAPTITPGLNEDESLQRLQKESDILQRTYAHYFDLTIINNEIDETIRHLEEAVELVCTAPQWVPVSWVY

panel of 468 kinases [2] = molecular target: T2, panel of 468 kinases (Homo sapiens, UniProt P16234); conditions: PDGFRA; 1 μM; read-out: % control
T2 construct: purchased KINOMEscan (ScanMAX) service
T2 sequence (P16234 24-1089): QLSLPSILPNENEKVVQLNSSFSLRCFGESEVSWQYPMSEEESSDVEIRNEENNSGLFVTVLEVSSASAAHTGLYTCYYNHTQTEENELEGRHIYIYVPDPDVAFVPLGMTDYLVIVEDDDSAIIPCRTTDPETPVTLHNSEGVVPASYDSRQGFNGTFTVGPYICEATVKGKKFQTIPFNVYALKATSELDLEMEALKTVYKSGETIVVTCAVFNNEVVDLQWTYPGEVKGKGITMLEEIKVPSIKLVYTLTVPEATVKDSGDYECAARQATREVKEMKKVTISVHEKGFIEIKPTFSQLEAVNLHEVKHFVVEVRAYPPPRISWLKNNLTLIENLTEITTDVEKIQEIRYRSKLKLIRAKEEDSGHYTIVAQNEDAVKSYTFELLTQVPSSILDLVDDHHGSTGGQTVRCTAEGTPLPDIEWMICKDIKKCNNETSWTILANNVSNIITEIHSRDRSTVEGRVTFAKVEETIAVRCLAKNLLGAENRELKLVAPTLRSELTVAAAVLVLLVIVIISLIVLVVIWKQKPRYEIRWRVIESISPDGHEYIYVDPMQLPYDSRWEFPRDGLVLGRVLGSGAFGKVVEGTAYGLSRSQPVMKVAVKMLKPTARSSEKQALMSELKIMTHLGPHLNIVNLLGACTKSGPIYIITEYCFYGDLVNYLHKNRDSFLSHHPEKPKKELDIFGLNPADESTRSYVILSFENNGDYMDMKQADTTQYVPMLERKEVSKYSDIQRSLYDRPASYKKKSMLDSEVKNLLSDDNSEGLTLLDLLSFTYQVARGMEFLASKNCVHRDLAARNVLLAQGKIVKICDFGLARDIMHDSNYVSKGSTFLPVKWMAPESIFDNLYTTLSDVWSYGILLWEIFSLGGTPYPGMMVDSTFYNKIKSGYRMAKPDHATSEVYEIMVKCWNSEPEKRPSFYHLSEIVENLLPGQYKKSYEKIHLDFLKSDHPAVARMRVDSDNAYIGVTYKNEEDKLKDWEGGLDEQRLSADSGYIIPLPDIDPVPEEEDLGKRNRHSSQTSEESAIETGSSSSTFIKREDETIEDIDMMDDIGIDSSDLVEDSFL

panel of 468 kinases [3] = molecular target: T3, panel of 468 kinases (Homo sapiens, UniProt P30291); conditions: WEE1; 1 μM; read-out: % control
T3 construct: purchased KINOMEscan (ScanMAX) service
T3 sequence (P30291 whole entry): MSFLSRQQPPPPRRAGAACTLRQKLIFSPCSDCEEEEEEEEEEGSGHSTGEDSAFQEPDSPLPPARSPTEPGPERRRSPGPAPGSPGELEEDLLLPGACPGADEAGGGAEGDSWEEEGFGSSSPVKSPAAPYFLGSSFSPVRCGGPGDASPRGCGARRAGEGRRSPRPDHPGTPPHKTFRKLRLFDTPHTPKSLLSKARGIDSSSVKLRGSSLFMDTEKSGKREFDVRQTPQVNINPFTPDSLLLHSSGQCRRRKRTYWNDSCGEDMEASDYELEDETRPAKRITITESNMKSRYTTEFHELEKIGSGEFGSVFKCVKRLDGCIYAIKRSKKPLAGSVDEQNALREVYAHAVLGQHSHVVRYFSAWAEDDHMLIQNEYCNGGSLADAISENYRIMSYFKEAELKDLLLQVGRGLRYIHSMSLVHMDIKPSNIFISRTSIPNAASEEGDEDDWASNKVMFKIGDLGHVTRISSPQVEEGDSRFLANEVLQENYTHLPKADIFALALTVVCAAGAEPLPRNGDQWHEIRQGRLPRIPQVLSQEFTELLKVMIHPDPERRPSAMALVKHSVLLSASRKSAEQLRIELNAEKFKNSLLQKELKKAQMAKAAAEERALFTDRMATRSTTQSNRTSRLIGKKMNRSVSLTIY

panel of 468 kinases [4] = molecular target: T4, panel of 468 kinases (Homo sapiens, UniProt P49761); conditions: CLK3; 1 μM; read-out: % control
T4 construct: purchased KINOMEscan (ScanMAX) service
T4 sequence (P49761 whole entry): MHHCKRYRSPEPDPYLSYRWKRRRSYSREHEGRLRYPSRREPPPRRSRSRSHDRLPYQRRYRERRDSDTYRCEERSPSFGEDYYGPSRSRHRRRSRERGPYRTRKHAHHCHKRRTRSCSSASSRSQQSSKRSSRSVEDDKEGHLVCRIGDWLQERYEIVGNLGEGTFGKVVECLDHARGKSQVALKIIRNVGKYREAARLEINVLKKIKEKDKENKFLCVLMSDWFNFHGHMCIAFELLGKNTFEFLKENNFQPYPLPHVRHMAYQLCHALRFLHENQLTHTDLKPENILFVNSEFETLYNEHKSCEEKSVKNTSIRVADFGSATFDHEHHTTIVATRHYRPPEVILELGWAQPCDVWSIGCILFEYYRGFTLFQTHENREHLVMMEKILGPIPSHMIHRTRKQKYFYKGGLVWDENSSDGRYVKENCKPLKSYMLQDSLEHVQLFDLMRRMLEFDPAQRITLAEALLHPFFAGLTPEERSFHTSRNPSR

panel of 468 kinases [5] = molecular target: T5, panel of 468 kinases (Homo sapiens, UniProt Q05655); conditions: PRKCD; 1 μM; read-out: % control
T5 construct: purchased KINOMEscan (ScanMAX) service
T5 sequence (Q05655 whole entry): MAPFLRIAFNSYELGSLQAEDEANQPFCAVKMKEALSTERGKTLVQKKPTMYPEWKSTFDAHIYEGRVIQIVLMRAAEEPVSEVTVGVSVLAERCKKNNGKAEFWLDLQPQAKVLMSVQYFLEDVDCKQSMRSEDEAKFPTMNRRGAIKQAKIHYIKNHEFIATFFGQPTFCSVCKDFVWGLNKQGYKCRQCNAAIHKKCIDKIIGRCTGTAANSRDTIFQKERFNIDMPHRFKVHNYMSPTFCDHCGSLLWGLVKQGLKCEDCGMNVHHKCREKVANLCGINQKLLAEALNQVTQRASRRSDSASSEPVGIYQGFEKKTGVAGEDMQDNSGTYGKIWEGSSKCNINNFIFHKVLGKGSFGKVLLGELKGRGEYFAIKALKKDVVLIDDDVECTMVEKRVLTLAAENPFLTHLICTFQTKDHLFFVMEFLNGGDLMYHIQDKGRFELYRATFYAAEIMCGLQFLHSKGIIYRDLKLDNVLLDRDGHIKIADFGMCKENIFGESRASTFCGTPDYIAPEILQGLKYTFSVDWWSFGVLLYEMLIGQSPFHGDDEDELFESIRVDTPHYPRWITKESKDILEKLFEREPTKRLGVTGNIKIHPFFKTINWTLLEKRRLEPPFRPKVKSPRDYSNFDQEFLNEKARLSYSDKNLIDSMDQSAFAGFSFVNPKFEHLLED

panel of 468 kinases [6] = molecular target: T6, panel of 468 kinases (Homo sapiens, UniProt Q06418); conditions: TYRO3; 1 μM; read-out: % control
T6 construct: purchased KINOMEscan (ScanMAX) service
T6 sequence (Q06418 41-890): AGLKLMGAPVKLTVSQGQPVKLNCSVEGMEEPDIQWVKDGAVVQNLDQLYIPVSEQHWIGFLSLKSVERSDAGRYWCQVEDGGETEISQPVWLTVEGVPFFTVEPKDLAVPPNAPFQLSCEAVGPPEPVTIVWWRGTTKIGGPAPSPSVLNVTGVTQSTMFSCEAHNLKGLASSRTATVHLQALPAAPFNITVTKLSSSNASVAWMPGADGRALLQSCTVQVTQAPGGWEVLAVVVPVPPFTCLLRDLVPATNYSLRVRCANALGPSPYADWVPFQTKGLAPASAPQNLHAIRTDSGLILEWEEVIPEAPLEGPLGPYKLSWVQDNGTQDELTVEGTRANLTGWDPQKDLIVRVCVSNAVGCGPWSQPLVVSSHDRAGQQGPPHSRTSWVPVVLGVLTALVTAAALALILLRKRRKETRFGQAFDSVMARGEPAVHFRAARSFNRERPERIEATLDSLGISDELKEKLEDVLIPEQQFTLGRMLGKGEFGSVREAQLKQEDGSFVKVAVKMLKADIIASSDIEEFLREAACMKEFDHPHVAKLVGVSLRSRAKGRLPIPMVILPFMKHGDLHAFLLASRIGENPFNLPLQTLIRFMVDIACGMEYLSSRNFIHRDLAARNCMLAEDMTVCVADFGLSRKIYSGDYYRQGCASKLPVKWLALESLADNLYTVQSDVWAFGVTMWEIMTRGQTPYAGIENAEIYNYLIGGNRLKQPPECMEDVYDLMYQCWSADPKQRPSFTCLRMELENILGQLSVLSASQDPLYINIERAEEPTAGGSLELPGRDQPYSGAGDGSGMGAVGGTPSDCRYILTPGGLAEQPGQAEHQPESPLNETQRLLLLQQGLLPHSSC

Structure (SMILES): CNc1nc(Nc2ccc(C(=O)N3CCC(N4CCOCC4)CC3)c3c2OCO3)nc2[nH]cc(Cl)c12 [Compound 75, (7-((5-chloro-4-(methylamino)-7H-pyrrolo[2,3-d]pyrimidin-2-yl)amino)benzo[d][1,3]dioxol-4-yl)(4-morpholinopiperidin-1-yl)methanone]
- remaining binding at 1 µM (panel of 468 kinases [1]): 99%
- remaining binding at 1 µM (panel of 468 kinases [2]): 67%
- remaining binding at 1 µM (panel of 468 kinases [3]): 95%
- remaining binding at 1 µM (panel of 468 kinases [4]): 58%
- remaining binding at 1 µM (panel of 468 kinases [5]): 89%
- remaining binding at 1 µM (panel of 468 kinases [6]): 100%

Structure (SMILES): CNc1nc(Nc2ccc(S(=O)(=O)N3CCC(N4CCOCC4)CC3)cc2OC)nc2[nH]cc(Cl)c12 [Compound 12, 5-chloro-N2-(2-methoxy-4-((4-morpholinopiperidin-1-yl)sulfonyl)phenyl)-N4-methyl-7H-pyrrolo[2,3-d]pyrimidine-2,4-diamine]
- remaining binding at 1 µM (panel of 468 kinases [1]): 90%
- remaining binding at 1 µM (panel of 468 kinases [2]): 77%
- remaining binding at 1 µM (panel of 468 kinases [3]): 78%
- remaining binding at 1 µM (panel of 468 kinases [4]): 77%
- remaining binding at 1 µM (panel of 468 kinases [5]): 94%
- remaining binding at 1 µM (panel of 468 kinases [6]): 100%

Structure (SMILES): CNc1nc(Nc2ccc(P3(=O)CCN(C4CCOCC4)CC3)cc2OC)nc2[nH]cc(Cl)c12 [Compound 77, 4-(4-((5-chloro-4-(methylamino)-7H-pyrrolo[2,3-d]pyrimidin-2-yl)amino)-3-methoxyphenyl)-1-(tetrahydro-2H-pyran-4-yl)-1,4-azaphosphinane 4-oxide]
- remaining binding at 1 µM (panel of 468 kinases [1]): 95%
- remaining binding at 1 µM (panel of 468 kinases [2]): 69%
- remaining binding at 1 µM (panel of 468 kinases [3]): 93%
- remaining binding at 1 µM (panel of 468 kinases [4]): 93%
- remaining binding at 1 µM (panel of 468 kinases [5]): 95%
- remaining binding at 1 µM (panel of 468 kinases [6]): 100%
